Structures are written as SMILES.

The experiment deals with GST-Bc1-2 (Homo sapiens, UniProt P10415). Kind of experiment: Time Resolved-Fluorescence Resonance Energy Transfer (TR-FRET) Bcl-2 binding assay with F-Bak peptide probe. The conditions noted are these: GST-Bcl-2 1 nM, F-Bak probe 100 nM, Tb-anti-GST 1 nM; '<' = below limit of detection; read-out: TR-FRET Bcl-2 Binding Ki.
GST-Bc1-2, sequence (P10415 whole entry): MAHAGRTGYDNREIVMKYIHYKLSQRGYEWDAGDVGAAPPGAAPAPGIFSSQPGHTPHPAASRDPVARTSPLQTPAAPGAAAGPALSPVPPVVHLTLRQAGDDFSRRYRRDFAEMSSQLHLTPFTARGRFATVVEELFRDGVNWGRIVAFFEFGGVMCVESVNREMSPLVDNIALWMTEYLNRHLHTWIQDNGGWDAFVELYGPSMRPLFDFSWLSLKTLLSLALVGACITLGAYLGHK
One may read the Ki as a dissociation constant, usually derived from enzyme kinetics or from competition with a known ligand. As for `CC1(C)CCC(CN2CCN(c3ccc(C(=O)NS(=O)(=O)c4ccc(NCC5CN(CC(F)F)CCO5)c([N+](=O)[O-])c4)c(Oc4cnc5[nH]ccc5c4)c3)CC2)=C(c2ccc(Cl)cc2)C1` (stereo not drawn) [Example 166, 4-(4-{[2-(4-chlorophenyl)-4,4-dimethylcyclohex-1-en-1-yl]methyl}piperazin-1-yl)-N-{[4-({[4-(2,2-difluoroethyl)morpholin-2-yl]methyl}amino)-3-nitrophenyl]sulfonyl}-2-(1H-pyrrolo[2,3-b]pyridin-5-yloxy)benzamide], the Ki is less than 0.01 nM.
Next, `CC1(C)CCC(CN2CCN(c3ccc(C(=O)NS(=O)(=O)c4ccc(OCC5(F)CCN(C6COC6)CC5)c([N+](=O)[O-])c4)c(Oc4cnc5[nH]ccc5c4)c3)CC2)=C(c2ccc(Cl)cc2)C1` [Example 167, 4-(4-{[2-(4-chlorophenyl)-4,4-dimethylcyclohex-1-en-1-yl]methyl}piperazin-1-yl)-N-({4-[(4-fluoro-1-oxetan-3-ylpiperidin-4-yl)methoxy]-3-nitrophenyl}sulfonyl)-2-(1H-pyrrolo[2,3-b]pyridin-5-yloxy)benzamide]: less than 0.01 nM.
Regarding `CC1(C)CCC(CN2CCN(c3ccc(C(=O)NS(=O)(=O)c4ccc(OC[C@@H]5CC(F)(F)CN5C5COC5)c([N+](=O)[O-])c4)c(Oc4cnc5[nH]ccc5c4)c3)CC2)=C(c2ccc(Cl)cc2)C1` [Example 168, 4-(4-{[2-(4-chlorophenyl)-4,4-dimethylcyclohex-1-en-1-yl]methyl}piperazin-1-yl)-N-[(4-{[(2S)-4,4-difluoro-1-oxetan-3-ylpyrrolidin-2-yl]methoxy}-3-nitrophenyl)sulfonyl]-2-(1H-pyrrolo[2,3-b]pyridin-5-yloxy)benzamide], the Ki is less than 0.01 nM.
Turning to `CC1(C)CCC(CN2CCN(c3ccc(C(=O)NS(=O)(=O)c4ccc(NCC5COCCN5C5CCOCC5)c([N+](=O)[O-])c4)c(Oc4cnc5[nH]ccc5c4)c3)CC2)=C(c2ccc(Cl)cc2)C1` (stereo not drawn) [Example 169, 4-(4-{[2-(4-chlorophenyl)-4,4-dimethylcyclohex-1-en-1-yl]methyl}piperazin-1-yl)-N-[(3-nitro-4-{[(4-tetrahydro-2H-pyran-4-ylmorpholin-3-yl)methyl]amino}phenyl)sulfonyl]-2-(1H-pyrrolo[2,3-b]pyridin-5-yloxy)benzamide], the Ki was 0.021 nM.
Regarding `CC1(C)CCC(CN2CCN(c3ccc(C(=O)NS(=O)(=O)c4ccc(NCC5COCCN5C5CCC5)c([N+](=O)[O-])c4)c(Oc4cnc5[nH]ccc5c4)c3)CC2)=C(c2ccc(Cl)cc2)C1` (stereo not drawn) [Example 170, 4-(4-{[2-(4-chlorophenyl)-4,4-dimethylcyclohex-1-en-1-yl]methyl}piperazin-1-yl)-N-[(4-{[(4-cyclobutylmorpholin-3-yl)methyl]amino}-3-nitrophenyl)sulfonyl]-2-(1H-pyrrolo[2,3-b]pyridin-5-yloxy)benzamide], the Ki was determined as 0.022 nM.
In the case of `CC1(C)CCC(CN2CCN(c3ccc(C(=O)NS(=O)(=O)c4ccc(NCC5COCCN5C5CCOC5)c([N+](=O)[O-])c4)c(Oc4cnc5[nH]ccc5c4)c3)CC2)=C(c2ccc(Cl)cc2)C1` (stereo not drawn) [Example 171, 4-(4-{[2-(4-chlorophenyl)-4,4-dimethylcyclohex-1-en-1-yl]methyl}piperazin-1-yl)-N-[(3-nitro-4-{[(4-tetrahydrofuran-3-ylmorpholin-3-yl)methyl]amino}phenyl)sulfonyl]-2-(1H-pyrrolo[2,3-b]pyridin-5-yloxy)benzamide], the Ki is less than 0.01 nM.
As to `CC1(C)CCC(CN2CCN(c3ccc(C(=O)NS(=O)(=O)c4ccc(NCC5CCN(C(CF)CF)CC5)c([N+](=O)[O-])c4)c(Oc4cnc5[nH]ccc5c4)c3)CC2)=C(c2ccc(Cl)cc2)C1` [Example 172, 4-(4-{[2-(4-chlorophenyl)-4,4-dimethylcyclohex-1-en-1-yl]methyl}piperazin-1-yl)-N-({4-[({1-[2-fluoro-1-(fluoromethyl)ethyl]piperidin-4-yl}methyl)amino]-3-nitrophenyl}sulfonyl)-2-(1H-pyrrolo[2,3-b]pyridin-5-yloxy)benzamide], the Ki was less than 0.01 nM.
As to `CC1(C)CCC(CN2CCN(c3ccc(C(=O)NS(=O)(=O)c4ccc(OCC5(F)CCN(C6CC6)CC5)c([N+](=O)[O-])c4)c(Oc4cnc5[nH]ccc5c4)c3)CC2)=C(c2ccc(Cl)cc2)C1` [Example 173, 4-(4-{[2-(4-chlorophenyl)-4,4-dimethylcyclohex-1-en-1-yl]methyl}piperazin-1-yl)-N-({4-[(1-cyclopropyl-4-fluoropiperidin-4-yl)methoxy]-3-nitrophenyl}sulfonyl)-2-(1H-pyrrolo[2,3-b]pyridin-5-yloxy)benzamide], the Ki was less than 0.01 nM.
As to `COc1ccc(CNc2ccc(S(=O)(=O)NC(=O)c3ccc(N4CCN(CC5=C(c6ccc(Cl)cc6)CC(C)(C)CC5)CC4)cc3Oc3cnc4[nH]ccc4c3)cc2[N+](=O)[O-])cc1` [Example 174, 4-(4-{[2-(4-chlorophenyl)-4,4-dimethylcyclohex-1-en-1-yl]methyl}piperazin-1-yl)-N-({4-[(4-methoxybenzyl)amino]-3-nitrophenyl}sulfonyl)-2-(1H-pyrrolo[2,3-b]pyridin-5-yloxy)benzamide], the inhibition constant (Ki) was less than 0.01 nM.
Next, `CC1(C)CCC(CN2CCN(c3ccc(C(=O)NS(=O)(=O)c4ccc(NCc5cccc(OC(F)(F)F)c5)c([N+](=O)[O-])c4)c(Oc4cnc5[nH]ccc5c4)c3)CC2)=C(c2ccc(Cl)cc2)C1` [Example 175, 4-(4-{[2-(4-chlorophenyl)-4,4-dimethylcyclohex-1-en-1-yl]methyl}piperazin-1-yl)-N-[(3-nitro-4-{[3-(trifluoromethoxy)benzyl]amino}phenyl)sulfonyl]-2-(1H-pyrrolo[2,3-b]pyridin-5-yloxy)benzamide]: 0.119 nM; `COc1cccc(CNc2ccc(S(=O)(=O)NC(=O)c3ccc(N4CCN(CC5=C(c6ccc(Cl)cc6)CC(C)(C)CC5)CC4)cc3Oc3cnc4[nH]ccc4c3)cc2[N+](=O)[O-])c1` [Example 176, 4-(4-{[2-(4-chlorophenyl)-4,4-dimethylcyclohex-1-en-1-yl]methyl}piperazin-1-yl)-N-({4-[(3-methoxybenzyl)amino]-3-nitrophenyl}sulfonyl)-2-(1H-pyrrolo[2,3-b]pyridin-5-yloxy)benzamide]: 0.023 nM; `CC1(C)CCC(CN2CCN(c3ccc(C(=O)NS(=O)(=O)c4ccc(NCc5ccc(OC(F)F)cc5)c([N+](=O)[O-])c4)c(Oc4cnc5[nH]ccc5c4)c3)CC2)=C(c2ccc(Cl)cc2)C1` [Example 177, 4-(4-{[2-(4-chlorophenyl)-4,4-dimethylcyclohex-1-en-1-yl]methyl}piperazin-1-yl)-N-[(4-{[4-(difluoromethoxy)benzyl]amino}-3-nitrophenyl)sulfonyl]-2-(1H-pyrrolo[2,3-b]pyridin-5-yloxy)benzamide]: 0.111 nM.
Consider `CC1(C)CCC(CN2CCN(c3ccc(C(=O)NS(=O)(=O)c4ccc(NC5CCC6(CC5)OCCO6)c([N+](=O)[O-])c4)c(Oc4cnc5[nH]ccc5c4)c3)CC2)=C(c2ccc(Cl)cc2)C1` [Example 178, 4-(4-{[2-(4-chlorophenyl)-4,4-dimethylcyclohex-1-en-1-yl]methyl}piperazin-1-yl)-N-{[4-(1,4-dioxaspiro[4.5]dec-8-ylamino)-3-nitrophenyl]sulfonyl}-2-(1H-pyrrolo[2,3-b]pyridin-5-yloxy)benzamide], for which the Ki was found to be 0.076 nM.
As to `CC(=O)N[C@H]1CC[C@H](Nc2ccc(S(=O)(=O)NC(=O)c3ccc(N4CCN(CC5=C(c6ccc(Cl)cc6)CC(C)(C)CC5)CC4)cc3Oc3cnc4[nH]ccc4c3)cc2[N+](=O)[O-])CC1` [Example 179, Trans-N-[(4-{[4-(acetylamino)cyclohexyl]amino}-3-nitrophenyl)sulfonyl]-4-(4-{[2-(4-chlorophenyl)-4,4-dimethylcyclohex-1-en-1-yl]methyl}piperazin-1-yl)-2-(1H-pyrrolo[2,3-b]pyridin-5-yloxy)benzamide], the Ki was less than 0.01 nM.
Consider `CC1(C)CCC(CN2CCN(c3ccc(C(=O)NS(=O)(=O)c4ccc(N[C@@H]5CCN(CC(F)F)C5)c([N+](=O)[O-])c4)c(Oc4cnc5[nH]ccc5c4)c3)CC2)=C(c2ccc(Cl)cc2)C1` [Example 180, 4-(4-{[2-(4-chlorophenyl)-4,4-dimethylcyclohex-1-en-1-yl]methyl}piperazin-1-yl)-N-[(4-{[(3R)-1-(2,2-difluoroethyl)pyrrolidin-3-yl]amino}-3-nitrophenyl)sulfonyl]-2-(1H-pyrrolo[2,3-b]pyridin-5-yloxy)benzamide], for which the Ki is less than 0.01 nM.
Take `CC1(C)CCC(CN2CCN(c3ccc(C(=O)NS(=O)(=O)c4ccc(N[C@H]5CCN(CCF)C5)c([N+](=O)[O-])c4)c(Oc4cnc5[nH]ccc5c4)c3)CC2)=C(c2ccc(Cl)cc2)C1` [Example 181, 4-(4-{[2-(4-chlorophenyl)-4,4-dimethylcyclohex-1-en-1-yl]methyl}piperazin-1-yl)-N-[(4-{[(3S)-1-(2-fluoroethyl)pyrrolidin-3-yl]amino}-3-nitrophenyl)sulfonyl]-2-(1H-pyrrolo[2,3-b]pyridin-5-yloxy)benzamide]: the Ki came to 0.017 nM.
Next, `CC1(C)CCC(CN2CCN(c3ccc(C(=O)NS(=O)(=O)c4ccc(N[C@H]5CCN(CC(F)F)C5)c([N+](=O)[O-])c4)c(Oc4cnc5[nH]ccc5c4)c3)CC2)=C(c2ccc(Cl)cc2)C1` [Example 182, 4-(4-{[2-(4-chlorophenyl)-4,4-dimethylcyclohex-1-en-1-yl]methyl}piperazin-1-yl)-N-[(4-{[(3S)-1-(2,2-difluoroethyl)pyrrolidin-3-yl]amino}-3-nitrophenyl)sulfonyl]-2-(1H-pyrrolo[2,3-b]pyridin-5-yloxy)benzamide]: 0.068 nM; `CC1(C)CCC(CN2CCN(c3ccc(C(=O)NS(=O)(=O)c4ccc(NCc5ccc(O)cc5)c([N+](=O)[O-])c4)c(Oc4cnc5[nH]ccc5c4)c3)CC2)=C(c2ccc(Cl)cc2)C1` [Example 185, 4-(4-{[2-(4-chlorophenyl)-4,4-dimethylcyclohex-1-en-1-yl]methyl}piperazin-1-yl)-N-({4-[(4-hydroxybenzyl)amino]-3-nitrophenyl}sulfonyl)-2-(1H-pyrrolo[2,3-b]pyridin-5-yloxy)benzamide]: 0.022 nM.
